Results as given in patent publication EP2924037A1, “QUINAZOLINE DERIVATE AND USE THEREOF AS APOPTOSIS INHIBITOR” (Linx Pharmaceutical Co., Ltd., priority 2012, dated 2013).

Target: T1, pgk1 (Mus musculus, UniProt P09411)
T1 construct: His; made in house; host or cells: E. coli
T1 sequence (P09411 1-417): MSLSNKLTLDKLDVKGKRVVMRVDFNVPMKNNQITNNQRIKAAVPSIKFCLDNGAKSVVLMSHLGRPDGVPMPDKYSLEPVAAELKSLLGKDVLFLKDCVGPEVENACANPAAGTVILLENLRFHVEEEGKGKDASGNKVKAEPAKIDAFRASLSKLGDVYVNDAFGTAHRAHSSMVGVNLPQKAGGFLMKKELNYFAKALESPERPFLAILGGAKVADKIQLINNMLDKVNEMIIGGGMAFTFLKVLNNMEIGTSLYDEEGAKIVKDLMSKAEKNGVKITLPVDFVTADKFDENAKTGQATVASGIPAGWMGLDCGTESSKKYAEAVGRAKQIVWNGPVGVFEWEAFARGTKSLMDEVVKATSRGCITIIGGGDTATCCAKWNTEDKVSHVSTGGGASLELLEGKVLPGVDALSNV
Test: Activity assay of pgk1 (GAPDH-coupled, absorbance at 340 nm)
Assay type: biochemical
Settings: read-out: Activity* (the times of pgk1 activity induced by 0.02µg/ml of the tested compound)
Experimental: The recombinant mouse pgk1 protein (His-pgk1) was expressed in the E. Coli. The protein was purified by a Nickel column. The proteins were diluted to 0.15 unit /mL. Then, different concentrations of terazosin were added to determine the pgk1 activity.
According to the components of Colorimetric GAPDH Assay Kit (ScienCells), the reaction solution was prepared with solutions of GAPDH, HEPES, and MgSO4. A predetermined concentration of the compound of Formula I was added to the reaction solution (30 mM Hepes, 3 mM ATP, 0.22 mM NADH, 10 mM MgSO4, 10 mM 3-PGA, 3-4 U/ml GAPDH, pH 7.5). Absorbance was measured at 25 °C with a spectroscope (340 nm). Relative activity of pgk1 was calculated based on the changes of absorbance value within 1-10 minutes. The activity has a positive correlation with the changes of absorbance value. The absorbance of the same compound at 340 nm was subtracted in the test group.

SMILES | fold induction at 0.02 µg/mL
COc1cc2nc(N3CCN(C(=O)C4CCCO4)CC3)nc(NO)c2cc1OC (centres unmarked) [Co.4] | 3.4
COc1c(OC)c(OC)c2c(N)nc(N3CCN(C(=O)C4CCCO4)CC3)nc2c1NC(=O)c1ccccc1 (centres unmarked) [Co.31] | 0.6
COc1c(OC)c(OC)c2c(N)nc(N3CCN(C(=O)C4CCCO4)CC3)nc2c1F (centres unmarked) [Co.28] | 1.2
COc1c(OC)c(OC)c2c(N)nc(N3CCN(C(=O)C4CCCO4)CC3)nc2c1NC(C)=O (centres unmarked) [Co.29] | 2.6
COc1cc2c(N)nc(N3CCN(C(=O)C4CCCO4)CC3)nc2cc1F (centres unmarked) [Co.18] | 1.3
COc1cc2nc(N3CCN(C(=O)C4CCCO4)CC3)nc(NC3CCCCC3)c2cc1OC (centres unmarked) [Co.9] | 1.4
COc1c(OC)c(C(F)(F)F)c2c(N)nc(N3CCN(C(=O)C4CCCO4)CC3)nc2c1N1CCCCC1 (centres unmarked) [Co.27] | 0.9

Next, values leading:

fold induction at 0.02 µg/mL | SMILES
0.6 | Nc1nc(N2CCN(C(=O)C3CCCO3)CC2)nc2cc3c(cc12)OCO3 (centres unmarked) [Co.15]
1.5 | COc1cc2nc(N3CCN(C(=O)C4CCCO4)CC3)nc(NC(=O)c3ccccc3)c2cc1OC (centres unmarked) [Co.14]
2.8 | COc1c(OC)c(OC)c2c(N)nc(N3CCN(C(=O)C4CCCO4)CC3)nc2c1OC1CC=CCC1 (centres unmarked) [Co.32]
2.7 | CCOCCOc1c(OC)c(OC)c(OCCOCC)c2c(N)nc(N3CCN(C(=O)C4CCCO4)CC3)nc12 (centres unmarked) [Co.25]
3.2 | COc1c(OC)c(OC)c2c(N)nc(N3CCN(C(=O)C4CCCO4)CC3)nc2c1OC(C)=O (centres unmarked) [Co.26]
1.5 | C=CCNc1nc(N2CCN(C(=O)C3CCCO3)CC2)nc2cc(OC)c(OC)cc12 (centres unmarked) [Co.5]
0.4 | COc1cc2c(N)nc(N3CCN(C(=O)C4CCCO4)CC3)nc2cc1OC1CC=CCC1 (centres unmarked) [Co.24]
1.9 | Nc1nc(N2CCN(C(=O)C3CCCO3)CC2)nc2cc3cccnc3cc12 (centres unmarked) [Co.20]

System: E. Coli O111:B4
Test: Oxford Cup test of antibiotic activity
Assay type: cell-based
Settings: after 24 hrs; terazosin 0.2µg, 2µg, 200µg, 2mg; ampicillin 2mg
Experimental: The antibiotic activity of terazosin was measured by Oxford Cup test. Oxford Cups containing different concentrations of terazosin were placed in the petri dish wherein E. Coli O111:B4 was cultured on LB medium. The effects of terazosin and ampicillin on the growth of E. Coli were examined after 24 hrs.

SMILES | growth of E. coli (inhibition zones)
CC1(C)S[C@@H]2[C@H](NC(=O)[C@H](N)c3ccccc3)C(=O)N2[C@H]1C(=O)O [ampicillin] | shown to inhibit E. coli growth

System: cerebral thrombosis
Test: Mouse model of cerebral thrombosis, infarct volume
Assay type: in vivo
Settings: 0.4 mg/kg i.p.; 6 mice per condition; t-test P<0.05
Experimental: In a mouse model of cerebral thrombosis, the mouse brains were stained after death from thrombosis. […] The statistical analysis was performed based on % infarct volume = white area/total area, 6 mice were tested for each condition. t-test, P<0.05.

SMILES | infarct volume (% infarct volume = white area/total area)
COc1cc2nc(N3CCN(C(=O)C4CCCO4)CC3)nc(NO)c2cc1OC (centres unmarked) [Co.4] | effective to reduce the infarct volume
COc1cc2nc(N3CCN(C(=O)C4CCCO4)CC3)nc(NC(=O)c3ccccc3)c2cc1OC (centres unmarked) [Co.14] | effective to reduce the infarct volume
COc1c(OC)c(OC)c2c(N)nc(N3CCN(C(=O)C4CCCO4)CC3)nc2c1OC1CC=CCC1 (centres unmarked) [Co.32] | effective to reduce the infarct volume
COc1c(OC)c(OC)c2c(N)nc(N3CCN(C(=O)C4CCCO4)CC3)nc2c1NC(C)=O (centres unmarked) [Co.29] | effective to reduce the infarct volume

System: sepsis models (LPS; Cecal Ligation and Puncture)
Test: Effects against sepsis (LPS and CLP models), 7-day survival
Assay type: in vivo, BALB/C mice
Settings: i.p. once a day for 3 days at 0.4 mg/kg; 7-day period; P < 0.05 compared to negative controls
Experimental: After 1.5 hours, compounds were injected (i.p.) at a predetermined concentration. Mouse survival was examined every 12 hours for 7 days. Statistical significance of the difference in the survival rates was analyzed.
Another model is Cecal Ligation and Puncture (CLP) model of sepsis. Mice were anesthetized. A 1.5-2.0 cm long abdominal midline incision was made and the cecum was exposed. After ligation 5 mm from the cecal tip, the cecum was punctured once with a 22-gauge needle, and some stool was squeezed out. Then the cecum was put back into the abdomen and the abdomen was closed by running suture. After 1.5 hours, compounds were injected (i.p.) at a predetermined concentration. Mouse survival was examined every 12 hours for 7 days. Statistical significance of the difference in the survival rates was analyzed.
These compounds were individually injected (i.p.) once a day for 3 days at 0.4 mg/kg.

SMILES | survival against sepsis
COc1cc2nc(N3CCN(C(=O)C4CCCO4)CC3)nc(NO)c2cc1OC (centres unmarked) [Co.4] | significantly increased survival against sepsis
COc1c(OC)c(OC)c2c(N)nc(N3CCN(C(=O)C4CCCO4)CC3)nc2c1F (centres unmarked) [Co.28] | significantly increased survival against sepsis
COc1c(OC)c(OC)c2c(N)nc(N3CCN(C(=O)C4CCCO4)CC3)nc2c1NC(C)=O (centres unmarked) [Co.29] | significantly increased survival against sepsis
COc1cc2c(N)nc(N3CCN(C(=O)C4CCCO4)CC3)nc2cc1F (centres unmarked) [Co.18] | significantly increased survival against sepsis
COc1cc2nc(N3CCN(C(=O)C4CCCO4)CC3)nc(NC3CCCCC3)c2cc1OC (centres unmarked) [Co.9] | significantly increased survival against sepsis

System: not listed separately
Test: Effect on serum glucose in mice
Assay type: in vivo
Settings: Mus musculus, ip; 0.4 mg/kg i.p. once, measured 18 hours later; t-test P<0.01 for terazosin; read-out: reduction of the serum glucose level
Experimental: Mice were injected terazosin (0.4 mg/kg i.p.) once. The serum glucose level of the mice was measured 18 hours later. […] By the same method, exemplary compounds Co.1, Co.3, Co.7, Co.9, Co.13, Co.16, Co.19, Co.24, Co.27 and Co.32 as described in the present invention were all shown to be effective to reduce the serum glucose level by 20% to 50%.

SMILES | inhibition in vivo at 0.4 mg/kg
COc1c(OC)c(OC)c2c(N)nc(N3CCN(C(=O)C4CCCO4)CC3)nc2c1OC1CC=CCC1 (centres unmarked) [Co.32] | 20 to 50%
COc1cc2nc(N3CCN(C(=O)C4CCCO4)CC3)nc(NC3CCCCC3)c2cc1OC (centres unmarked) [Co.9] | 20 to 50%
COc1cc2c(N)nc(N3CCN(C(=O)C4CCCO4)CC3)nc2cc1OC1CC=CCC1 (centres unmarked) [Co.24] | 20 to 50%
COc1c(OC)c(C(F)(F)F)c2c(N)nc(N3CCN(C(=O)C4CCCO4)CC3)nc2c1N1CCCCC1 (centres unmarked) [Co.27] | 20 to 50%
